Reference: the supplement of paper PMC10307832

Key:
Experiment in all cases: relative viability (nuclei count vs DMSO), 5 days (fraction); higher = more cells survive
[1] = compound: CC1CC(=O)N(C2=CN=C(N=C2N1C3CCCC3)NC4=C(C=C(C=C4)C(=O)NC5CCN(CC5)C)OC)C [NPK76-II-72-1] + CC(C)C[C@H](NC(=O)[C@H](Cc1ccccc1)NC(=O)c1cnccn1)B(O)O [Bortezomib] (partner 0.002 µM)
Method in brief: (§1)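 Lung cancer cell lines in 1536-well plates got either a single drug or a fixed anchor-drug dose together with five library-drug doses (not always all listed) in √10 steps, by pin tool, on the day after seeding. Nuclei were counted after 5 days, and relative viability is the treated-to-vehicle ratio of nuclei counts. Values are medians of duplicate plates.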

[2] = compound: CC1CC(=O)N(C2=CN=C(N=C2N1C3CCCC3)NC4=C(C=C(C=C4)C(=O)NC5CCN(CC5)C)OC)C [NPK76-II-72-1] + O=C(CCCCCCC(=O)Nc1ccccc1)NO [Vorinostat] (partner 1 µM)
Method in brief: as §1

BI-2536 + Phenformin = compound: CC[C@@H]1C(=O)N(C)c2cnc(Nc3ccc(C(=O)NC4CCN(C)CC4)cc3OC)nc2N1C1CCCC1 [BI-2536] + N=C(N)NC(=N)NCCc1ccccc1 [Phenformin] (partner 250 µM)
Method in brief: as §1

BI-2536 + AZD7762 = compound: CC[C@@H]1C(=O)N(C)c2cnc(Nc3ccc(C(=O)NC4CCN(C)CC4)cc3OC)nc2N1C1CCCC1 [BI-2536] + NC(=O)Nc1cc(-c2cccc(F)c2)sc1C(=O)N[C@H]1CCCNC1 [AZD7762] (partner 0.2 µM)
Method in brief: as §1

Cell Line	relative viability ([1]; first compound 0.01 µM)	relative viability ([1]; first compound 0.03162 µM)	relative viability ([1]; first compound 0.1 µM)	relative viability ([1]; first compound 0.3162 µM)	relative viability ([1]; first compound 1 µM)	relative viability ([2]; first compound 0.01 µM)	relative viability ([2]; first compound 0.03162 µM)	relative viability ([2]; first compound 0.1 µM)	relative viability ([2]; first compound 0.3162 µM)	relative viability ([2]; first compound 1 µM)	relative viability (BI-2536 + Phenformin; first compound 0.01 µM)	relative viability (BI-2536 + Phenformin; first compound 0.03162 µM)	relative viability (BI-2536 + Phenformin; first compound 0.1 µM)	relative viability (BI-2536 + Phenformin; first compound 0.3162 µM)	relative viability (BI-2536 + Phenformin; first compound 1 µM)	relative viability (BI-2536 + AZD7762; first compound 0.01 µM)	relative viability (BI-2536 + AZD7762; first compound 0.03162 µM)	relative viability (BI-2536 + AZD7762; first compound 0.1 µM)	relative viability (BI-2536 + AZD7762; first compound 0.3162 µM)	relative viability (BI-2536 + AZD7762; first compound 1 µM)
NCI-H1975	0.34	0.37	0.292	0.41	0.402	0.676	0.736	0.662	0.694	0.712	0.394	0.355	0.215	0.126	0.118	0.726	0.568	0.639	0.236	0.177
NCI-H1993	1	1.09	0.775	0.729	0.873	0.486	0.777	0.784	0.725	0.728	0.493	0.432	0.52	0.41	0.475	0.734	0.668	0.407	0.53	0.348
RERF-LC-KJ	1.11	1.11	1.07	0.916	1.08	0.639	0.725	0.662	0.701	0.673	0.403	0.297	0.216	0.211	0.224	0.943	0.926	0.808	0.142	0.174
NCI-H23	0.856	1.22	–	1.06	1.12	0.609	0.657	0.637	0.515	0.627	0.769	0.781	0.415	0.115	0.122	0.236	0.236	0.127	0.12	0.088
HCC-366	0.952	1.1	1.03	0.94	0.99	0.358	0.361	0.394	0.322	0.461	0.67	0.605	0.256	0.0215	0.0251	0.246	0.37	0.156	0.017	0.0177
EMC-BAC-2	1.06	1.15	0.951	1.01	1.12	0.423	0.186	0.493	0.416	0.524	0.547	0.477	0.352	0.155	0.208	1.05	1.21	0.777	0.269	0.277
NCI-H2405	1.01	0.99	0.921	0.753	1.11	0.949	0.791	1.04	1.07	1.03	0.378	0.377	0.321	0.153	0.243	0.698	0.624	0.269	0.303	0.289
EPLC-272H	0.984	0.916	0.773	0.829	0.975	0.403	0.4	0.456	0.574	0.41	0.241	0.28	0.105	0.109	0.103	0.198	0.231	0.0832	0.0551	0.0884
NCI-H1915	0.981	1.04	0.848	0.865	1.02	0.504	0.537	0.483	0.442	0.574	0.351	0.328	0.12	0.0657	0.0862	0.641	0.696	0.535	0.195	0.109
NCI-H596	0.838	–	0.999	1	0.966	0.718	0.615	0.696	0.631	0.723	0.729	0.737	0.917	0.358	0.245	1.1	1.14	1.11	0.342	0.403
NCI-H322M	1.17	1.3	1.24	1.39	1.36	0.886	0.808	0.861	1.01	0.913	0.76	0.725	0.497	0.341	0.251	0.61	0.53	0.496	0.394	0.406
NCI-H647	0.847	1.1	–	0.853	1.05	0.575	0.568	0.4	0.668	0.725	0.423	0.349	0.107	0.059	0.0765	0.542	0.308	0.257	0.0341	0.0503
NCI-H2085	1.05	1.01	0.977	0.953	1.02	0.731	0.808	0.794	0.821	0.842	0.785	0.69	0.307	0.183	0.243	1.03	0.963	0.737	0.217	0.27
NCI-H727	0.881	0.981	0.938	0.9	0.869	1.23	1.33	1.2	1.22	1.29	0.529	0.527	0.386	0.319	0.313	0.479	0.8	0.664	0.406	0.314
NCI-H441	0.872	0.312	0.319	0.527	0.451	0.64	0.839	0.881	0.881	0.851	0.805	0.492	0.23	0.217	0.228	0.977	1.21	0.228	0.174	0.21
LOU-NH91	0.488	0.483	0.463	0.432	0.35	0.89	0.935	0.763	0.814	1.06	0.706	0.662	0.583	0.273	0.252	0.722	0.76	0.42	0.316	0.329
